Measured values taken from patent US6121315A, “Oral compositions containing a zinc compound” (priority 1999, dated 2000).
Values joined by “and” are separate entries in the source; they are usually repeats but may differ in a detail not shown here. Equal values may be shown once. Read-outs that look alike come from different tables or passages of the source.

Columns and labels:
[1] = cited from earlier work
[2] = Adherence of zinc to simulated dental plaque on steel wires, fluorimetric with 8-hydroxyquinoline
From the text: To determine how readily zinc adheres to dental plaque, the adherence of zinc to simulated plaque grown on steel wires was fluorimetrically measured. Increasing concentrations of zinc solutions were used in the test oral compositions.
After the simulated plaque is developed on the wires, it is then immersed in the oral composition to be tested, which is followed by a rinse. Thereafter, the plaque coated wires are immersed in a 0.01% solution of 8-hydroxyquinoline prepared by dissolving the 8-hydroxyquinoline in 100% ethanol. Twenty (20) ml of this solution were then brought q.s. up to the correct concentration.

[3] = test system: Fusobacterium nucleatum (ATCC 10953); type: cell-based
From the text: The objective of this study was to evaluate the use of pure cultures or oral malodor-causing bacteria as the source of malodor instead of human subjects. Cultures of Fusobacterium nucleatum, Veillonella parvula and Prevotella sp. are well recognized producers of VSC's due to their ability to digest amino acids including cysteine and methionine. The most widely investigated of these is F. nucleatum. Therefore, this organism was selected for this in vitro test. Evaluating a finished oral care composition spiked with Fusobacterium was considered, however, the detector in the Halimeter was adversely affected by alcohols. […] Therefore, the following methodology was applied to screen the effectiveness of various zinc salt solutions in reducing VSC's: Fusobacterium nucleatum (ATCC #10953) was transferred twice from frozen stock cultures and maintained by daily transfers in […]' broth (Difco or BBL). […] The tube is a scaled down version of a Kontes #181000 adapter inlet with hose connectors which is coupled to a 18×100 mm glass tube fitted with a tapered ground fitting. After one minute the Halimeter was connected to a port on the reaction tube and allowed to sample the VSC's in the solution via the vacuum pump. The peak reading recorded by the Halimeter was taken as the VSC measurement. The level of inoculum selected was determined by ppb of VSC's generated in inoculated water alone. […] Three different zinc salt solutions, ZnCl2, ZnSO4, and ZnO, were evaluated. […] Water was used as the control. (Table 1) The heading D% refers to the difference between the measurement of VSCs in ppb using a pure water solution and the measurement of VSCs in ppb using varying concentrations of zinc salts. Each experiment was run in triplicate.

[4] = Overnight malodor study: morning mouth air VSC (H2 S, CH3 SH) by gas chromatography; type: in vivo, human
Procedure: Subjects participating in this study maintained their normal nightly oral hygiene procedure for the duration of the study. In addition, all participants were asked to refrain from eating odoriferous foods at least 24 hours prior to their appointment for measurement of VSC's.
Subjects reported directly to the laboratory each morning for measurement of mouth air VSC levels. This measurement was the baseline (pretreatment) level of VSC. Selection for the study was based on morning levels of H2 S above 30 parts per billion (ppb) and CH3 SH above 20 ppb. Subjects fulfilling this criteria received a treatment to use that evening. Immediately before retiring to bed, the subjects rinsed vigorously for 30 seconds using the assigned treatment. The following morning the subject returned to the lab for analysis of mouth air VSC. This measurement was the post-treatment value. These treatments were assigned in a random, crossover design experiment.
Levels of VSC in subject's mouth air were determined using a gas chromatography system equipped with a flame photometric detector. […] Analysis of variance tested for significant treatment differences.
Differences between treatment were tested by analysis of variance using post minus pretreatment levels of mouth air VSCs.

[5] = 1 hour after using 31 or 18 mM; cited from earlier work
[6] = 0.25% zinc chloride, significant reduction from Baseline
[7] = individual subjects 1-13 in table order, morning after 20 ml of 0.25% zinc chloride, 30 second rinse at bedtime
[8] = individual subjects 1-13 in table order, pretreatment, zinc chloride arm
[9] = mean of 13 subjects, pretreatment, zinc chloride arm

Compound | % D, difference from water in VSC ([3]; 0.01%, first run) [%] | % D, difference from water in VSC ([3]; 0.01%, second run) [%] | % D, difference from water in VSC ([3]; 0.01%, third run) [%] | % D, difference from water in VSC ([3]; 0.05%, first run) [%] | % D, difference from water in VSC ([3]; 0.05%, second run) [%] | % D, difference from water in VSC ([3]; 0.05%, third run) [%] | % D, difference from water in VSC ([3]; 0.1%, first run) [%] | % D, difference from water in VSC ([3]; 0.1%, second run) [%] | % D, difference from water in VSC ([3]; 0.1%, third run) [%] | % D, difference from water in VSC ([3]; 0.2%, first run) [%] | % D, difference from water in VSC ([3]; 0.2%, second run) [%] | % D, difference from water in VSC ([3]; 0.2%, third run) [%] | % D, difference from water in VSC ([3]; 0.4%, first run) [%] | % D, difference from water in VSC ([3]; 0.4%, second run) [%] | % D, difference from water in VSC ([3]; 0.4%, third run) [%] | other results
CC1CCC(C(C)C)C(O)C1 (stereo not drawn) [Menthol, hexahydrothymol, reference compound] | – | – | – | – | – | – | – | – | – | – | – | – | – | – | – | solubility in alcohol [1]: highly soluble
[Cl-].[Cl-].[Zn+2] [ZnCl2, zinc chloride] | -47.4 | -58.3 | -37.0 | -53.0 | -57.5 | -40.0 | -53.8 | -54.6 | -43.1 | -59.8 | -60.4 | -47.9 | -63.2 | -58.9 | -47.4 | amount of fluorescence in dental plaque vs concentration ([2]; ZnCl2 0.001%, 0.010%, 0.025%, 0.050% and 0.100%): the amount of fluorescence increased with increasing zinc concentration; lowest concentration at which fluorescence from zinc was detectable in dental plaque ([2]; base oral composition identical to Example 2, excitation 360 nm, emission 530 nm or 590 nm): 0.001 % (w/v); CH3 SH, Probability (p), t-test for differences from baseline [4, 6]: .0209; H2 S, Probability (p), t-test for differences from baseline [4, 6]: .0074; CH3 SH levels, Post [4, 7]: 50 ppb and 20 ppb and 63 ppb and 176 ppb and 41 ppb and 35 ppb and 29 ppb and 25 ppb and 133 ppb and 47 ppb and 16 ppb; H2 S levels, Post [4, 7]: 41 ppb and 22 ppb and 162 ppb and 268 ppb and 129 ppb and 106 ppb and 35 ppb and 318 ppb and 32 ppb and 94 ppb and 17 ppb and 97 ppb; CH3 SH levels, Baseline [4, 8]: 173 ppb and 46 ppb and 358 ppb and 115 ppb and 249 ppb and 61 ppb and 51 ppb and 99 ppb and 170 ppb and 217 ppb and 44 ppb and 59 ppb and 34 ppb; H2 S levels, Baseline [4, 8]: 344 ppb and 53 ppb and 522 ppb and 204 ppb and 644 ppb and 310 ppb and 91 ppb and 509 ppb and 191 ppb and 175 ppb and 81 ppb and 110 ppb and 170 ppb; CH3 SH levels, Post, mean (x) ([4]; mean of 13 subjects, morning after 20 ml of 0.25% zinc chloride, baseline mean 129, water 76 to 65): 57 ppb; H2 S levels, Post, mean (x) ([4]; mean of 13 subjects, morning after 20 ml of 0.25% zinc chloride, baseline mean 262, water 164 to 113): 114 ppb; CH3 SH levels, Baseline, mean (x) [4, 9]: 129 ppb; H2 S levels, Baseline, mean (x) [4, 9]: 262 ppb; development of VSC's overnight in vivo ([4]; summary statement in words): prevent or inhibit
[O]=[Zn] [ZnO, zinc oxide] | -53.7 | -54.9 | -40.0 | -48.7 | -51.8 | -37.5 | -58.2 | -57.6 | -42.1 | -59.4 | -63.5 | -47.9 | -60.2 | -70.5 | -54.1 | –
O=S(=O)([O-])[O-].[Zn+2] [ZnSO4, zinc sulfate] | -52.0 | -67.7 | -38.7 | -53.6 | -51.3 | -42.5 | -54.7 | -58.6 | -42.4 | -58.1 | -67.4 | -48.1 | -65.0 | -58.2 | -51.0 | –
CC(C)[C@@H]1CC[C@@H](C)C[C@H]1OC(=O)CCC(=O)O [monomenthyl succinate] | – | – | – | – | – | – | – | – | – | – | – | – | – | – | – | solubility in water [1]: sparingly soluble; solubility in oil ([1]; relative to water): more soluble
O=S(=O)([O-])c1ccc(O)cc1.O=S(=O)([O-])c1ccc(O)cc1.[Zn+2] [zinc phenolsuphonate] | – | – | – | – | – | – | – | – | – | – | – | – | – | – | – | oral zinc concentration [5]: markedly increased
[Cl-].[Cl-].[Zn+2] [zinc] | – | – | – | – | – | – | – | – | – | – | – | – | – | – | – | levels of CH3 SH and H2 S compared to baseline levels ([4]; overnight, morning breath, result in words): significantly reduced
